# Measurements from publication PMC3158675, “Effective inhibitors of the essential kinase PknB and their potential as anti-mycobacterial agents” (Tuberculosis (Edinburgh, Scotland), 2011).
# System: M. tuberculosis ompA mutant
# Format: cell-based
row,Structure (SMILES),Sensitivity of M. tuberculosis ompA mutant compared to wild type
1,CC[C@H]1OC(=O)[C@H](C)[C@@H](O[C@H]2C[C@@](C)(OC)[C@@H](O)[C@H](C)O2)[C@H](C)[C@@H](O[C@@H]2O[C@H](C)C[C@H](N(C)C)[C@H]2O)[C@](C)(O)C[C@@H](C)C(=O)[C@H](C)[C@@H](O)[C@]1(C)O [erythromycin],slightly increased resistance
2,CN[C@H](CC(C)C)C(=O)N[C@H]1C(=O)N[C@@H](CC(N)=O)C(=O)N[C@H]2C(=O)N[C@H]3C(=O)N[C@H](C(=O)N[C@H](C(=O)O)c4cc(O)cc(O)c4-c4cc3ccc4O)[C@H](O)c3ccc(c(Cl)c3)Oc3cc2cc(c3O[C@@H]2O[C@H](CO)[C@@H](O)[C@H](O)[C@H]2O[C@H]2C[C@](C)(N)[C@H](O)[C@H](C)O2)Oc2ccc(cc2Cl)[C@H]1O [vancomycin],slightly increased resistance
